We go through two compounds from ChEMBL document CHEMBL5236586, “Novel ginsenoside derivatives induce apoptosis in HepG-2 cells via the MDM2-p53 signaling pathway” (Bioorg Med Chem Lett, 2022).

Activity calls are given as the source filed them. No cut-off for these calls is given here.

In series [1] the test system is HepG2. Nature of the series: Antiproliferative activity against human HepG2 cells assessed as inhibition of cell growth. The series is classed as functional, cell-based.
The target of series [2] is E3 ubiquitin-protein ligase Mdm2 (Homo sapiens) (UniProt Q00987). Put plainly: Inhibition of MDM2 in human HepG2 cells assessed as increase in p53 protein level at 1.25 to 5 uM incubated for 12 hrs by Western blot analysis. The series is classed as cell-based. The conditions noted are these: dose 1.25-5 µM. Background: In western blotting, separated proteins are transferred to a membrane and probed.

The subject of series [3] is HepG2. Nature of the series: Induction of apoptosis in human HepG2 cells assessed as decrease in caspase-3 expression level at 1.25 to 5 uM incubated for 12 hrs by Western blot analysis. The format is functional, cell-based. The conditions noted are these: dose 1.25-5 µM.
For another series, the system named is PC-3. Nature of the series: Antiproliferative activity against human PC-3 cells assessed as inhibition of cell proliferation by MTT assay. The series is classed as functional, cell-based. Background: Tetrazolium dyes change colour on reduction, which living cells bring about.
In series [4] the test system is HepG2. Put plainly: Induction of apoptosis in human HepG2 cells at 1.25 to 5 uM by DAPI staining based analysis. The format is functional, cell-based. The conditions noted are these: dose 1.25-5 µM.
A further series has as its system A549. Put plainly: Antiproliferative activity against human A549 cells assessed as inhibition of cell proliferation by MTT assay. The series is classed as functional, cell-based.
In series [5] the test system is HepG2. Put plainly: Induction of apoptosis in human HepG2 cells assessed as increase in Bax level at 1.25 to 5 uM incubated for 12 hrs by Western blot analysis. The format is functional, cell-based. The conditions noted are these: dose 1.25-5 µM.
Series [6] deals with HepG2. Nature of the series: Effect on cell morphology in human HepG2 cells assessed as cell shrinkage at 1.25 to 5 uM by DAPI staining based analysis. The series is classed as functional. The conditions noted are these: dose 1.25-5 µM.
Series [7] concerns HepG2. Nature of the series: Induction of apoptosis in human HepG2 cells assessed as increase in cleaved PARP level at 1.25 to 5 uM incubated for 12 hrs by Western blot analysis. The series is classed as functional, cell-based. The conditions noted are these: dose 1.25-5 µM.
The subject of series [8] is HepG2. Nature of the series: Induction of apoptosis in human HepG2 cells assessed as decrease in Bcl-2 expression level at 1.25 to 5 uM incubated for 12 hrs by Western blot analysis. The series is classed as functional, cell-based. The conditions noted are these: dose 1.25-5 µM.
Series [9] deals with HepG2. Nature of the series: Induction of apoptosis in human HepG2 cells assessed as increase in cleaved caspase-3 level at 1.25 to 5 uM incubated for 12 hrs by Western blot analysis. The conditions noted are these: dose 1.25-5 µM. The format is functional, cell-based.
Series [10] deals with HepG2. Nature of the series: Potency index, ratio of PD IC50 to test compound IC50 for antiproliferative activity against human HepG2 cells assessed as inhibition of cell proliferation by MTT assay. The series is classed as functional.
Series [11] deals with HepG2. Nature of the series: Antiproliferative activity against human HepG2 cells assessed as inhibition of cell proliferation by MTT assay. The format is functional, cell-based.
In series [12] the target is E3 ubiquitin-protein ligase Mdm2 (Homo sapiens) (UniProt Q00987). Nature of the series: Inhibition of MDM2 in human HepG2 cells assessed as decrease in MDM2 protein level at 1.25 to 5 uM incubated for 12 hrs by Western blot analysis. The conditions noted are these: dose 1.25-5 µM. The format is cell-based.
Series [13] is described as follows: Cytotoxicity against mouse L929 cells assessed as inhibition of cell proliferation by MTT assay. The series is classed as toxicity, cell-based.

Chain of E3 ubiquitin-protein ligase Mdm2 (Homo sapiens) (Q00987 whole entry, looked up): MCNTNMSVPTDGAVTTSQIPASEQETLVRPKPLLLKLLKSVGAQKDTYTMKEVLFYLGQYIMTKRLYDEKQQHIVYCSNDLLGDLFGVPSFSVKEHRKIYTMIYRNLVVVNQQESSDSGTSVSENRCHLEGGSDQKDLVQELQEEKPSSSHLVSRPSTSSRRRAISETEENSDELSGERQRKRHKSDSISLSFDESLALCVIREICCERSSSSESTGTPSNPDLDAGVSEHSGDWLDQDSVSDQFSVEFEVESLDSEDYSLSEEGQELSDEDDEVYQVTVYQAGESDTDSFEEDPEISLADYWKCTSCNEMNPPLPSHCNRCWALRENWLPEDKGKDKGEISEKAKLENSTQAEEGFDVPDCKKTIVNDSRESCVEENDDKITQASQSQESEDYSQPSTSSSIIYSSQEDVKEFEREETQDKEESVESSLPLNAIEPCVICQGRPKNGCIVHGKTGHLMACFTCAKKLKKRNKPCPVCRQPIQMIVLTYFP

In the case of `N#Cc1c(-c2cn(-c3ccccc3)nc2-c2cc3ccccc3o2)[nH]c(NN)nc1=O`, the half-inhibitory concentration (IC50) in the series on HepG2 [1] was determined as 12.5 µM.
Consider `CC(C)c1ccc(-c2nc(SCC(=O)O[C@H]3CC[C@@]4(C)[C@@H](CC[C@]5(C)[C@H]4C[C@@H](O)[C@@H]4C([C@@]6(C)CCCC(C)(C)O6)CC[C@]45C)C3(C)C)[nH]c(=O)c2C#N)cc1` (stereo not given in full), for which the outcome (in series [2]; in the series with HepG2 [3]; in the series on HepG2 [4]; in the series with HepG2 [5]; in the series on HepG2 [6]; in the series on HepG2 [7]) was Active. Besides, the outcome (in the series with HepG2 [8]; in the series on HepG2 [9]; in series [12]) was Active. Besides, the IC50 in the series on PC-3 is 7.04 µM; with A549, 6.98 µM; with HepG2 [11], 2.13 µM; in series [13], 58.8 µM. For the same compound, in the series on HepG2 [10], the “Ratio IC50” value is 28.

The term IC50 denotes the concentration needed to halve the response being measured.
